Read-outs that look alike come from different tables or passages of the source.
Molecular target: human BACE1 (Homo sapiens, UniProt P56817)
Assay: Fluorescent kinetic assay, evaluation of BACE1 binding affinity of test compounds
Assay type: biochemical
Conditions: 10 nM human BACE1, 25 μM substrate WABC-6, pH 4.5, room temperature
In short: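 Kinetic fluorescence assay: enzyme added last to inhibitor and substrate mix, reading started immediately; substrate at 100 μM working dilution (25 μL in 100 μL total). Buffer 66.7 mM Na-acetate pH 4.5 with 0.0667% CHAPS for inhibitor and enzyme dilutions; enzyme stock quantified at 280 nm.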

Chain of human BACE1 (P56817 46-501): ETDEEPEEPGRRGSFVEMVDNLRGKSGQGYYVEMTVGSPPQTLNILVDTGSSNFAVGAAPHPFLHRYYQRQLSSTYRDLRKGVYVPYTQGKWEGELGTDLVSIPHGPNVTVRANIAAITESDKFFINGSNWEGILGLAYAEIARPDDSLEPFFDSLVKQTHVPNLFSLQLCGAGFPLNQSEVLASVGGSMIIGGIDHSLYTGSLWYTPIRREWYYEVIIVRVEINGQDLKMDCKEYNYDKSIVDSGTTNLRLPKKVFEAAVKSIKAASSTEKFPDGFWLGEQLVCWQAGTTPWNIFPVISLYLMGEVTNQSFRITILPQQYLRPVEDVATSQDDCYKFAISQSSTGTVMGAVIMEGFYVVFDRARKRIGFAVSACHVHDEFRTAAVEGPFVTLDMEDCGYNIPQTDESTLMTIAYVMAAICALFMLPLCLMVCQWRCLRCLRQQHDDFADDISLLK

| IC50 (read-out: BACE1 IC50) [µM] | SMILES | IC50 (BACE1 IC50 μM) [µM] |
| --- | --- | --- |
| 0.11 to 1 | CCc1cc(C2(c3ccc(F)c(C#CCC(C)C)c3)N=C(N)N(C)C2=O)ccc1OC(F)F (centres unmarked) [Example 149, 2-Amino-5-[4-(difluoromethoxy)-3-ethylphenyl]-5-[4-fluoro-3-(4-methylpent-1-yn-1-yl)phenyl]-3-methyl-3,5-dihydro-4H-imidazol-4-one] |  |
| < 0.1 | CC#Cc1cccc(C2(c3ccc(OC(F)F)c(C4CC4)c3)N=C(N)N(C)C2=O)c1 (centres unmarked) [Example 168, 2-amino-4-(3-cyclopropyl-4-(difluoromethoxy)phenyl)-1-methyl-4-(3-(prop-1-ynyl)phenyl)-1H-imidazol-5(4H)-one] |  |
| < 0.1 | CN1C(=O)C(c2cccc(OCC(F)F)c2)(c2ccc(OC(F)F)c(Cl)c2)N=C1N (centres unmarked) [Example 38, 2-Amino-5-[3-chloro-4-(difluoromethoxy)phenyl]-5-[3-(2,2-difluoroethoxy)phenyl]-3-methyl-3,5-dihydro-4H-imidazol-4-one] |  |
| 0.11 to 1 | CCc1cc([C@@]2(c3ccc(F)c(C#CC4CC4)c3)N=C(N)N(C)C2=O)ccc1OC(F)F [Example 148, (5S)-2-Amino-5-[3-(cyclopropylethynyl)-4-fluorophenyl]-5-[4-(difluoromethoxy)-3-ethylphenyl]-3-methyl-3,5-dihydro-4H-imidazol-4-one] |  |
| > 1 | Cc1cc([C@@]2(c3ccc(F)c(OCCF)c3)N=C(N)N(C)C2=O)ccc1OC(F)F [Example 112, (5S)-2-Amino-5-[4-(difluoromethoxy)-3-methylphenyl]-5-[4-fluoro-3-(2-fluoroethoxy)phenyl]-3-methyl-3,5-dihydro-4H-imidazol-4-one] |  |
|  | CN1C(=O)[C@](c2ccccc2)(c2ccc(OC(F)F)c(Cl)c2)N=C1N [Example 27, (5S)-2-Amino-5-[3-chloro-4-(difluoromethoxy)phenyl]-1-methyl-5-phenyl-3,5-dihydro-4H-imidazol-4-one] | 0.11 to 1 |
| < 0.1 | CCCOc1cc(C2(c3ccc(OC(F)F)c(C)c3)N=C(N)N(C)C2=O)ccc1F (centres unmarked) [Example 114, 2-Amino-5-[4-(difluoromethoxy)-3-methylphenyl]-5-(4-fluoro-3-propoxyphenyl)-3-methyl-3,5-dihydro-4H-imidazol-4-one] |  |
| 0.11 to 1 | CN1C(=O)C(c2ccc(OC(F)F)c(C3CC3)c2)(c2ccc(OC(F)F)c(C3CC3)c2)N=C1N [Example 194, 2-amino-4,4-bis(3-cyclopropyl-4-(difluoromethoxy)phenyl)-1-methyl-1H-imidazol-5(4H)-one] |  |
| > 1 | CN1C(=O)[C@@](c2ccc(F)c(OCCCF)c2)(c2ccc(OC(F)F)c(C3CC3)c2)N=C1N (single isomer, unassigned) [Example 87] |  |
| < 0.1 | CN1C(=O)C(c2cccc(OCCCF)c2)(c2ccc(OC(F)F)c(Cl)c2)N=C1N (centres unmarked) [Example 40, 2-Amino-5-[3-chloro-4-(difluoromethoxy)phenyl]-5-[3-(3-fluoropropoxy)phenyl]-3-methyl-3,5-dihydro-4H-imidazol-4-one] |  |
| 0.11 to 1 | CCCC#Cc1cccc(C2(c3ccc(OC(F)F)c(C4CC4)c3)N=C(N)N(C)C2=O)c1 (centres unmarked) [Example 172, 2-amino-4-(3-cyclopropyl-4-(difluoromethoxy)phenyl)-1-methyl-4-(3-(pent-1-ynyl)phenyl)-1H-imidazol-5(4H)-one] |  |
| > 1 | CN1C(=O)[C@@](c2ccccc2)(c2ccc(OC(F)F)c(CCCl)c2)N=C1N [Example 144, (5R)-2-Amino-5-[3-(2-chloroethyl)-4-(difluoromethoxy)phenyl]-3-methyl-5-phenyl-dihydro-4H-imidazol-4-one] |  |
| 0.11 to 1 | CCc1cc([C@@]2(c3ccc(F)c(C#CC(C)C)c3)N=C(N)N(C)C2=O)ccc1OC(F)F [Example 155, (5S)-2-Amino-5-[4-(difluoromethoxy)-3-ethylphenyl]-5-[4-fluoro-3-(3-methylbut-1-yn-1-yl)phenyl]-3-methyl-3,5-dihydro-4H-imidazol-4-one] |  |
| < 0.1 | C/C=C/c1cccc(C2(c3ccc(OC(F)F)c(Cl)c3)N=C(N)N(C)C2=O)c1 (centres unmarked) [Example 65, 2-Amino-5-[3-chloro-4-(difluoromethoxy)phenyl]-3-methyl-5-[((E)-3-prop-1-enyl)phenyl]-3,5-dihydro-4H-imidazol-4-one] |  |
| < 0.1 | CN1C(=O)[C@](c2ccc(F)c(OCC(F)F)c2)(c2ccc(OC(F)F)c(C3CC3)c2)N=C1N [Example 125, (5R)-2-Amino-5-[3-cyclopropyl-4-(difluoromethoxy)phenyl]-5-[3-(2,2-difluoroethoxy)-4-fluorophenyl]-3-methyl-3,5-dihydro-4H-imidazol-4-one] |  |
| < 0.1 | CN1C(=O)C(c2ccc(F)c(C#CC3CC3)c2)(c2ccc(OC(F)F)c(CCF)c2)N=C1N (centres unmarked) [Example 92, 2-amino-5-[3-(cyclopropylethynyl)-4-fluorophenyl]-5-[4-(difluoromethoxy)-3-(2-fluoroethyl)phenyl]-3-methyl-3,5-dihydro-4H-imidazol-4-one] |  |
| < 0.1 | COC/C=C/c1cccc(C2(c3ccc(OC(F)F)c(Cl)c3)N=C(N)N(C)C2=O)c1 (centres unmarked) [Example 66, 2-Amino-5-[3-chloro-4-(difluoromethoxy)phenyl]-5-[3-((E)-3-methoxyprop-1-enyl)phenyl]-3-methyl-3,5-dihydro-4H-imidazol-4-one] |  |
|  | CN1C(=O)[C@@](c2ccccc2)(c2ccc(OC(F)F)c(Cl)c2)N=C1N [Example 28, (5R)-2-Amino-5-[3-chloro-4-(difluoromethoxy)phenyl]-1-methyl-5-phenyl-3,5-dihydro-4H-imidazol-4-one] | > 1 |

| IC50 (read-out: BACE1 IC50) [µM] | SMILES | IC50 (BACE1 IC50 μM) [µM] |
| --- | --- | --- |
| < 0.1 | CN1C(=O)C(c2ccc(OC(F)F)c(Cl)c2)(c2ccc(F)c(OCCCF)c2)N=C1N (centres unmarked) [Example 98, 2-Amino-5-[3-chloro-4-(difluoromethoxy)phenyl]-5-[4-fluoro-3-(3-fluoropropoxy)phenyl]-3-methyl-3,5-dihydro-4H-imidazol-4-one] |  |
| < 0.1 | CN1C(=O)[C@](c2cccc(C#CCCCF)c2)(c2ccc(OC(F)F)c(C3CC3)c2)N=C1N (single isomer, unassigned) [Example 192] |  |
| 0.11 to 1 | Cc1cc([C@@]2(c3cccc(OCCC(F)F)c3)N=C(N)N(C)C2=O)ccc1OC(F)F [Example 128, (5S)-2-Amino-5-[4-(difluoromethoxy)-3-methylphenyl]-5-[3-(3,3-difluoropropoxy)phenyl]-3-methyl-3,5-dihydro-4H-imidazol-4-one] |  |
| 0.11 to 1 | COCCC#Cc1cccc([C@]2(c3ccc(OC(F)F)c(C4CC4)c3)N=C(N)N(C)C2=O)c1 (single isomer, unassigned) [Example 184] |  |
| < 0.1 | Cc1cc(C2(c3ccc(F)c(C#CCCF)c3)N=C(N)N(C)C2=O)ccc1OC(F)F (centres unmarked) [Example 203, 2-amino-5-[4-(difluoromethoxy)-3-methylphenyl]-5-[4-fluoro-3-(4-fluorobut-1-yn-1-yl)phenyl]-3-methyl-3,5-dihydro-4H-imidazol-4-one] |  |
| < 0.1 | CCc1cc(C2(c3ccc(F)c(OCCCF)c3)N=C(N)N(C)C2=O)ccc1OC(F)F (centres unmarked) [Example 120, 2-Amino-5-[4-(difluoromethoxy)-3-ethylphenyl]-5-[4-fluoro-3-(3-fluoropropoxy)phenyl]-3-methyl-3,5-dihydro-4H-imidazol-4-one] |  |
| < 0.1 | COCC#Cc1cccc([C@@]2(c3ccc(OC(F)F)c(C)c3)N=C(N)N(C)C2=O)c1 [Example 69, (5S)-2-Amino-4-(4-(difluoromethoxy)-3-methylphenyl)-4-(3-(3-methoxyprop-1-ynyl)phenyl)-1-methyl-1H-imidazol-5(4H)-one] |  |
| < 0.1 | Cc1cc(C2(c3cccc(OCCF)c3)N=C(N)N(C)C2=O)ccc1OC(F)F (centres unmarked) [Example 42] |  |
| > 1 | CN1C(=O)[C@@](c2ccccc2)(c2ccc(OC(F)F)c(CCF)c2)N=C1N (single isomer, unassigned) [Example 76] |  |
|  | Cc1cc(C2(c3ccc(F)c(Br)c3)N=C(N)N(C)C2=O)ccc1OC(F)F (centres unmarked) [Example 31] | 0.11 to 1 |
| < 0.1 | CCc1cc([C@]2(c3ccc(F)c(OCCC(F)F)c3)N=C(N)N(C)C2=O)ccc1OC(F)F [Example 136, (5R)-2-Amino-5-[4-(difluoromethoxy)-3-ethylphenyl]-5-[3-(3,3-difluoropropoxy)-4-fluorophenyl]-3-methyl-3,5-dihydro-4H-imidazol-4-one] |  |
| < 0.1 | CCc1cc(C2(c3ccc(F)c(C#CCOC)c3)N=C(N)N(C)C2=O)ccc1OC(F)F (centres unmarked) [Example 152, 2-Amino-5-[4-(difluoromethoxy)-3-ethylphenyl]-5-[4-fluoro-3-(3-methoxyprop-1-yn-1-yl)phenyl]-3-methyl-3,5-dihydro-4H-imidazol-4-one] |  |
| < 0.1 | Cc1cc(C2(c3ccc(F)c(/C=C/CCF)c3)N=C(N)N(C)C2=O)ccc1OC(F)F (centres unmarked) [Example 58, 2-Amino-5-[4-(difluoromethoxy)-3-methylphenyl]-5-[4-fluoro-3-((E)-4-fluorobut-1-enyl)phenyl]-3-methyl-3,5-dihydro-4H-imidazol-4-one] |  |
| 0.11 to 1 | Cc1cccc(C2(c3ccc(OC(F)F)c(C)c3)N=C(N)N(C)C2=O)c1 (centres unmarked) [Example 77, 2-amino-5-[4-(difluoromethoxy)-3-methylphenyl]-3-methyl-5-(3-methylphenyl)-3,5-dihydro-4H-imidazol-4-one] |  |
| < 0.1 | CN1C(=O)C(c2cccc(C#CC3CC3)c2)(c2ccc(OC(F)F)c(C3CC3)c2)N=C1N (centres unmarked) [Example 176, 2-amino-4-(3-cyclopropyl-4-(difluoromethoxy)phenyl)-4-(3-(cyclopropylethynyl)phenyl)-1-methyl-1H-imidazol-5(4H)-one] |  |
| < 0.1 | CN1C(=O)C(c2ccccc2)(c2ccc(OC(F)F)c(CCCl)c2)N=C1N (centres unmarked) [Example 141, 2-Amino-5-[4-(difluoromethoxy)-3-(2-chloroethyl)phenyl]-3-methyl-5-phenyl-3,5-dihydro-4H-imidazol-4-one] |  |
| < 0.1 | CN1C(=O)C(c2cccc(OCCF)c2)(c2ccc(OC(F)F)c(Cl)c2)N=C1N (centres unmarked) [Example 37, 2-Amino-5-[3-chloro-4-(difluoromethoxy)phenyl]-5-[3-(2-fluoroethoxy)phenyl]-3-methyl-3,5-dihydro-4H-imidazol-4-one] |  |

Reference: patent US20090042964A1, “AMINO-5-[SUBSTITUTED-4-(DIFLUOROMETHOXY)PHENYL]-5-PHENYLIMIDAZOLONE COMPOUNDS AS BETA-SECRETASE INHIBITORS” (Wyeth, priority 2007, published 2009)
